Experimental data taken from patent publication US20250276996A1, “CATIONICALLY-ENFRAMED HIGH DENSITY AROMATIC PEPTIDES” (Research Foundation of the City University of New York, priority 2022, published 2025).
Entries after “also recorded” stand apart in the source; their conditions may differ. Non-standard residues stand in square brackets, D forms with d. No end group written: not given here.

How the values were obtained:
ARPE-19 cells = assay: Mitochondrial potential in the presence of CCCP (TMRM); format: cell-based; conditions: 10 μM of CCCP
Protocol: Effects of peptides on mitochondrial potential in the presence of Carbonyl cyanide m-chlorophenylhydrazone (CCCP): ARPE-19 cells (ATTC-CRL-2302) (5×10^4 cells) were seeded in 35 mm glass dishes in DMEM/F12 medium with 10% FBS for 24 hr. On the day of the experiment, cells were cultured in DMEM/F12 in the presence of different concentrations of biotin-HDAP2 for 60 min (FIG. 17B). Then, cells were incubated with 10 μM CCCP in the presence of 5 nM TMRM, 100 nM Mito View Green, and 10 μg/ml Hoechst 33342 for 15 min at 37° C. Fluorescent images were immediately obtained with a Nikon Eclipse 50i fluorescence microscope (60× objective) using FITC (Mito View Green), Texas Red (TMRM), and DAPI (Hoechst) filters. Images were collected from three independent experiments, using 4-6 random fields for each treatment group, and imaged and analyzed as described for NR.

[1] = test system: antimycin-induced scratching; assay: Topical antimycin-induced scratching; format: in vivo, C57BL/6J mice; conditions: 100 μM topical with 200 μM antimycin
Protocol: However, antimycin-induced scratching in mice was […] by biotin-free HDAP2. Dermal administration of antimycin, a mitochondrial Complex III irreversible inhibitor, is known to induce ROS formation and oxidative stress in C fibers of sensory neurons, resulting in severe scratching in mice. Biotin-HDAP2 and biotin-free HDAP2 were tested to see if either can inhibit topical antimycin-induced itching in 12 months old C57BL/6J mice. […] Specifically, 200 μM of topical antimycin in methanol induced itching, which was monitored for 60 min. […] Error bars represent SEM (n=3) **P<0.001. Topical administration of 100 μM of biotin-free HDAP2 with antimycin increased scratching by 2.5 fold. Error bars represent SEM (n=3) ***P<0.0001.

MDBK cells = assay: Cell survival in serum-free media (AlamarBlue); format: cell-based, bovine; conditions: 1 μM, 5 days serum starvation
Protocol: Serum starvation experiments: Biotin-HDAP2's ability to improve cell viability and function following serum starvation was assessed. For all experiments, MDBK cells were seeded in 35 mm cell culture dishes (5×10^4 cells) in DMEM medium with 10% FBS (Fetal Bovine Serum) for 24 hrs and then incubated in serum-free medium with or without biotin-HDAP2 (1 μM) for 5 days to induce cell death. For quantitative measurements, wells were washed to remove dead cells, and then stained with AlamarBlue for 60 min. Quantitative analysis of dye conversion was measured using a fluorescent plate reader (550 ex/580 em) and cell viability was expressed as folds change (increase or decrease) over scrum-starved untreated cells.
Effects of peptides on cell survival in serum-free media: Cell survival in serum starvation conditions was studied in the presence and absence of biotin-HDAP2 using MDBK cells. Cells were plated at a density of 1-2×10^5 cells/well in 96 well plates in DMEM/10% FBS media. The following day, cells were washed and the medium replaced with DMEM serum-free media in the presence or absence of different concentrations of biotin-HDAP2 and incubated for 5 days. Cell viability was assessed using the Resaruzin (Alamar blue) indicator dye. Quantitative analysis of dye conversion was measured using a fluorescent plate reader (ex/em=550/580 nm) and viability was expressed as fold increase over of untreated cells.

Compound | ΔΨm relative to control cells (ARPE-19 cells) [%] | increase of scratching [1] [fold] | effect on antimycin-induced scratching ([1]; 60 min) | AlamarBlue fluorescence / protection during serum starvation (MDBK cells)
N#CC(C#N)=NNc1cccc(Cl)c1 [CCCP, carbonyl cyanide m-chlorophenylhydrazone, reference compound] | 20 |  |  | 
[dR]FF[dR] [biotin-free HDAP2] |  | 2.5 | potentiated | did not increase AlamarBlue fluorescence; also recorded: does not protect cells during serum starvation
